This note sets out measurements from patent US3974140A, “Ureidoacetamido-penicillins” (Bayer Aktiengesellschaft, priority 1970, dated 1976).

Common to all, as to assay: MIC, liquid medium test tube series dilution test
One assay concerns E. coli 14. Format: cell-based. The settings on record: E. coli 14, 24 hours, 37°C. The essentials: (§1)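 Liquid-medium tube serial dilution in complete nutrient medium, read after 24 h incubation at 37°C. MIC is the lowest concentration giving a non-turbid tube, expressed in units/ml.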
Another assay deals with E. coli 183/58. The format is cell-based. The settings on record: E. coli 183/58, 24 hours, 37°C. In a few lines: as §1
The test system of a further assay is E. coli A 261. Format: cell-based. The settings on record: E. coli A 261, 24 hours, 37°C. In a few lines:
as §1

For a further assay, the system named is E. coli C 165. The format is cell-based. The conditions noted are these: E. coli C 165, 24 hours, 37°C. The essentials: as §1
In another assay the test system is Klebsiella 63. Format: cell-based. The conditions noted are these: Klebsiella 63, 24 hours, 37°C. The essentials:
as §1

The subject of the next assay is Klebsiella K 10. Format: cell-based. The conditions noted are these: Klebsiella K 10, 24 hours, 37°C. The essentials: as §1
Assay [1] concerns Streptoc. faec. ATCC 9790. Format: cell-based. The conditions noted are these: Strep. faec. (Enterococcus) ATCC 9790, 24 hours, 37°C. In a few lines: as §1
A further assay has as its system Proteus vulg. 1017. Format: cell-based, Proteus vulgaris. The conditions noted are these: Proteus vulg. 1017, 24 hours, 37°C. The essentials:
as §1

A further assay deals with Proteus vulg. 3400. The format is cell-based, Proteus vulgaris. The conditions noted are these: Proteus vulg. 3400, 24 hours, 37°C. The essentials:
as §1

Another assay has as its system Psdm. aerug. Bonn. The format is cell-based, Pseudomonas aerug. The settings on record: 24 hours, 37°C. The essentials: as §1
In another assay the test system is Psdm. aerug. Walter. Format: cell-based, Pseudomonas aerug. The settings on record: 24 hours, 37°C. The essentials:
as §1

In the next assay the test system is Staph. aureus 133. The format is cell-based, Staphylococcus aureus. The conditions noted are these: Staph. aureus 133, 24 hours, 37°C. The essentials: as §1
Another assay has as its system Staph. aureus 1777 E. Format: cell-based, Staphylococcus aureus. The settings on record: 24 hours, 37°C. In a few lines: as §1

In the case of `CN(C(=O)N[C@@H](C(=O)N[C@@H]1C(=O)N2[C@@H]1SC(C)(C)[C@@H]2C(=O)O)c1ccccc1)C(=O)c1cccc(Cl)c1` [Example 117, Sodium D(-)-α-(3-m-chlorobenzoyl-3-methyl-ureido)-benzylpenicillin], the MIC in the assay with E. coli 14 was under 0.78 units/ml; against E. coli 183/58, 1.56 units/ml; against E. coli A 261, 50 units/ml; against E. coli C 165 it was 1.56 units/ml; against Klebsiella 63, 12.5 units/ml; in the assay on Klebsiella K 10 it was 6.25 units/ml. In addition, the MIC in [1] is recorded as 50 units/ml; against Proteus vulg. 1017 it was 3.12 units/ml; in the assay on Proteus vulg. 3400 it was 3.12 units/ml; in the assay on Psdm. aerug. Bonn, 12.5 units/ml; against Psdm. aerug. Walter it was 12.5 units/ml; in the assay with Staph. aureus 133, 0.8 units/ml. The MIC in the assay with Staph. aureus 1777 E is 12.5 units/ml.
As to `CC(=O)N(C)C(=O)NC(C(=O)N[C@@H]1C(=O)N2[C@@H]1SC(C)(C)[C@@H]2C(=O)O)c1ccc(C)cc1` (stereo partly drawn) [Example 118, Sodium α-(3-acetyl-3-methyl-ureido)-4-methylbenzylpenicillin], the MIC with E. coli 14 is on record as 12.5 units/ml; in the assay with E. coli 183/58, 200 units/ml; with E. coli A 261, over 400 units/ml; with E. coli C 165, 50 units/ml; in the assay on Klebsiella 63 it was 200 units/ml; with Klebsiella K 10, 100 units/ml. The MIC in [1] is reported as 50 units/ml; with Proteus vulg. 1017, 100 units/ml; against Proteus vulg. 3400, 200 units/ml; against Psdm. aerug. Bonn it was 200 units/ml; with Psdm. aerug. Walter it was 200 units/ml; against Staph. aureus 133, 1.6 units/ml. The MIC in the assay on Staph. aureus 1777 E was 100 units/ml.
With `Cc1ccc(C(NC(=O)N(C)C(=O)N(C)C)C(=O)N[C@@H]2C(=O)N3[C@@H]2SC(C)(C)[C@@H]3C(=O)O)cc1` (stereo partly drawn) [Example 119, Sodium R,S-α-(3-dimethylaminocarbonyl-3-methyl-ureido)-4-methylbenzylpenicillin], the MIC against E. coli 14 is recorded as 25 units/ml; against E. coli 183/58 it was 400 units/ml; in the assay with E. coli A 261, over 400 units/ml; in the assay with E. coli C 165, 200 units/ml; against Klebsiella 63, over 400 units/ml; in the assay on Klebsiella K 10, 400 units/ml. Moreover, the MIC was 100 units/ml in assay [1]; over 400 units/ml in the assay with Proteus vulg. 1017; over 400 units/ml in the assay on Proteus vulg. 3400; over 400 units/ml in the assay on Psdm. aerug. Bonn; over 400 units/ml in the assay on Psdm. aerug. Walter; 1.6 units/ml in the assay on Staph. aureus 133. The compound also displayed an MIC in the assay with Staph. aureus 1777 E of 200 units/ml.
As to `CC(=O)N(C)C(=O)NC(C(=O)N[C@@H]1C(=O)N2[C@@H]1SC(C)(C)[C@@H]2C(=O)O)c1ccc(Cl)cc1` (stereo partly drawn) [Example 121, Sodium R,S-α-(3-acetyl-3-methyl-ureido)-4-chlorobenzylpenicillin], the MIC was 6 units/ml against E. coli 14; 100 units/ml in the assay on E. coli 183/58; over 400 units/ml against E. coli A 261; 50 units/ml against E. coli C 165; 100 units/ml against Klebsiella 63; 25 units/ml against Klebsiella K 10. For the same compound, the MIC in [1] is reported as 100 units/ml; in the assay on Proteus vulg. 1017 it was 100 units/ml; in the assay with Proteus vulg. 3400 it was 200 units/ml; against Psdm. aerug. Bonn it was 100 units/ml; with Psdm. aerug. Walter, 100 units/ml; against Staph. aureus 133, under 0.8 units/ml. In addition, the MIC against Staph. aureus 1777 E is 100 units/ml.
Regarding `CC(=O)N(C)C(=O)NC(C(=O)N[C@@H]1C(=O)N2[C@@H]1SC(C)(C)[C@@H]2C(=O)O)c1cccs1` (stereo partly drawn) [Example 122, Sodium D,L-α-(3-acetyl-3-methyl-ureido)-α-thienyl(2)-methylpenicillin], the MIC against E. coli 14 was 12.5 units/ml; against E. coli 183/58, 200 units/ml; against E. coli A 261, over 400 units/ml; in the assay with E. coli C 165, 50 units/ml; in the assay with Klebsiella 63 it was 100 units/ml; with Klebsiella K 10 it was 50 units/ml. The MIC in assay [1] is 100 units/ml; against Proteus vulg. 1017, 100 units/ml; in the assay with Proteus vulg. 3400, 400 units/ml; against Psdm. aerug. Bonn it was 200 units/ml; in the assay with Psdm. aerug. Walter it was 400 units/ml; against Staph. aureus 133, 1.6 units/ml. The MIC against Staph. aureus 1777 E is on record as 400 units/ml.
On to `CN(C(=O)N[C@@H](C(=O)N[C@@H]1C(=O)N2[C@@H]1SC(C)(C)[C@@H]2C(=O)O)c1ccccc1)C(=O)N1CCCCC1` [Example 123, Sodium D(-)-α-(3-[1-piperidyl]-carbonyl-3-methyl-ureido)-benzylpenicillin], for which the MIC with E. coli 14 is on record as 3.12 units/ml; with E. coli 183/58, 12.5 units/ml; with E. coli A 261, over 400 units/ml; in the assay with E. coli C 165 it was 25 units/ml; against Klebsiella 63 it was 100 units/ml; in the assay with Klebsiella K 10 it was 50 units/ml. The MIC in assay [1] is reported as 200 units/ml; against Proteus vulg. 1017 it was 50 units/ml; against Proteus vulg. 3400, 100 units/ml; in the assay on Psdm. aerug. Bonn, 50 units/ml; against Psdm. aerug. Walter, 100 units/ml; in the assay with Staph. aureus 133 it was under 0.8 units/ml. In the assay on Staph. aureus 1777 E, this compound registered an MIC of 25 units/ml.
On to `CN(C(=O)N[C@@H](C(=O)N[C@@H]1C(=O)N2[C@@H]1SC(C)(C)[C@@H]2C(=O)O)c1ccccc1)C(=O)N1CCCC1` [Example 124, Sodium D(-)-α-(3-[1-pyrrolidyl]-carbonyl-3-methyl-ureido)-benzylpenicillin], for which the MIC with E. coli 14 is listed as 3.12 units/ml; with E. coli 183/58 it was 25 units/ml; with E. coli A 261 it was over 400 units/ml; against E. coli C 165 it was 12.5 units/ml; with Klebsiella 63, 50 units/ml; in the assay with Klebsiella K 10, 50 units/ml. For the same compound, the MIC in assay [1] is given as 200 units/ml; against Proteus vulg. 1017, 50 units/ml; with Proteus vulg. 3400, 50 units/ml; with Psdm. aerug. Bonn, 50 units/ml; in the assay on Psdm. aerug. Walter, 100 units/ml; in the assay on Staph. aureus 133, under 0.78 units/ml. This compound displayed an MIC in the assay on Staph. aureus 1777 E of 25 units/ml.
Turning to `CN(C(=O)N[C@@H](C(=O)N[C@@H]1C(=O)N2[C@@H]1SC(C)(C)[C@@H]2C(=O)O)c1ccccc1)C(=O)N1CCOCC1` [Example 125, Sodium D(-)-α-(3-[4-morpholinyl]-carbonyl-3-methyl-ureido)-benzylpenicillin], the MIC is on record as 3.12 units/ml in the assay with E. coli 14; 50 units/ml against E. coli 183/58; over 400 units/ml in the assay on E. coli A 261; 25 units/ml with E. coli C 165; 100 units/ml against Klebsiella 63; 200 units/ml against Klebsiella K 10. Further, the MIC is on record as 200 units/ml in assay [1]; 50 units/ml against Proteus vulg. 1017; 100 units/ml against Proteus vulg. 3400; 50 units/ml in the assay with Psdm. aerug. Bonn; 100 units/ml with Psdm. aerug. Walter; 3.12 units/ml in the assay on Staph. aureus 133. The MIC in the assay on Staph. aureus 1777 E is listed as 50 units/ml.
